# Data reported in patent US20020137929A1, “1 - (3-heterocyclylphenyl) isothiourea, -isourea, -guanidine and -amidine herbicidal agents” (Intellectual Property Department, BASF Aktiengesellschaft, priority 1998, published 2002).
# What was measured:
# ABUTH (Velvetleaf) [1] = assay: Postemergence herbicidal evaluation; format: in vivo, Abutilon theophrasti; settings: postemergence
# Summary of the method: (§1)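 Rate range approx. 0.0156–0.500 kg/ha. Foliar application at 40 psi to ~2-week seedlings; surfactant 0.5% TWEEN 20 in 50/50 acetone/water. Evaluation 4–5 wk post-treatment by 0–9 visual injury score, means of replicate tests.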
# [2] = test system: IPOHE (Morningglory, Ivyleaf); assay: Postemergence herbicidal evaluation; format: in vivo, Ipomoea hederacea; settings: postemergence
# Summary of the method: as §1
# SETVI (Foxtail, Green) = assay: Postemergence herbicidal evaluation; format: in vivo, Setaria viridis; settings: postemergence
# Summary of the method: as §1
# [3] = test system: GLXMAW (Soybean, Williams); assay: Postemergence herbicidal evaluation; format: in vivo, Glycine max, (L.) Merr. cv Williams; settings: postemergence
# Summary of the method: as §1
# ZEAMX (Corn, Field) = assay: Postemergence herbicidal evaluation; format: in vivo, Zea mays; settings: postemergence
# Summary of the method: as §1
# ABUTH (Velvetleaf) [4] = assay: Preemergence herbicidal evaluation; format: in vivo, Abutilon theophrasti; settings: preemergence, rated 4-5 weeks after treatment, 0-9 scale
# Summary of the method: (§2)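 Steps: mix seeds into potting soil; plant atop ~1 inch soil; spray compound in aqueous acetone (~0.0156-0.500 kg/ha equivalent); maintain in greenhouse with watering; rate visually 0-9 versus control at 4-5 weeks.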
# AMBEL (Ragweed, Common) = assay: Preemergence herbicidal evaluation; format: in vivo, Ambrosia artemisifolia; settings: preemergence, rated 4-5 weeks after treatment, 0-9 scale
# Summary of the method: as §2
# CASOB (Sicklepod) = assay: Preemergence herbicidal evaluation; format: in vivo, Cassia obtusifolia; settings: preemergence, rated 4-5 weeks after treatment, 0-9 scale
# Summary of the method: as §2
# [5] = test system: IPOHE (Morningglory, Ivyleaf); assay: Preemergence herbicidal evaluation; format: in vivo, Ipomoea hederacea; settings: preemergence, rated 4-5 weeks after treatment, 0-9 scale
# Summary of the method: as §2
# ECHCG (Barnyardgrass) = assay: Preemergence herbicidal evaluation; format: in vivo, Echinochloa crus-galli; settings: preemergence, rated 4-5 weeks after treatment, 0-9 scale
# Summary of the method: as §2
# [6] = test system: ECHORC (Watergrass (Calif.)); assay: Preemergence weed control under flooded paddy conditions; format: in vivo, Echinochloa oryzoides; settings: rated 3-4 weeks after treatment
# Summary of the method: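 Herbicidal effect is scored visually on a 0-9 scale against an untreated control, three to four weeks after compounds are pipetted into the flood water (1.5 to 3 cm deep) over seeds planted in silt loam at 0.5 cm depth. Rates: about 0.0313 to 0.500 kg/ha.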
# CYPSE (Flatsedge) = assay: as above; format: in vivo, Cyperus serotinus; settings: rated 3-4 weeks after treatment
# Summary of the method: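 Using flooded silt loam (water 1.5 to 3 cm deep), seeds sown in the top 0.5 cm were exposed preemergence to compound pipetted into the flood at about 0.0313 to 0.500 kg/ha. Effects were scored 0-9 by eye three to four weeks later.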
# [7] = test system: ECHORC (Watergrass (Calif.)); assay: Postemergence weed control under flooded paddy conditions; format: in vivo, Echinochloa oryzoides; settings: postemergence weeds, rated 3 to 4 weeks after treatment
# Summary of the method: (§3)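 Herbicidal effect is judged by eye on a 0–9 scale versus control, 3–4 weeks after dosing. Dosing is into flood water kept 1.5–3 cm over the soil, at about 0.0313–0.500 kg/ha in aqueous/acetone 50/50 v/v, on 3–5 cm weeds and 1.5–2.5-leaf rice seedlings.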
# CYPIR (Rice Flatsedge) = assay: as above; format: in vivo, Cyperus iria; settings: postemergence weeds, rated 3 to 4 weeks after treatment
# Summary of the method: as §3
structure (smiles),measurement,setting,value
"CC(C)OC(=O)CC1SC(=Nc2cc(-n3c(=O)cc(C(F)(F)F)n(C)c3=O)c(F)cc2Cl)N(C)C1=O (stereo not drawn) [Compound 89, Isopropyl 2-{{2-chloro-5-[3,6-dihydro-3-methyl-2,6-dioxo-4-(trifluoromethyl)-1(2H)-pyrimidinyl]-4-fluorophenyl}imino}-3-methyl-4-oxo-5-thiazolidineacetate]",ABUTH herbicidal rating,ABUTH (Velvetleaf) [1]; rate 0.0158 kg/ha,9.0
same,ABUTH herbicidal rating,ABUTH (Velvetleaf) [1]; rate 0.0313 kg/ha,9.0
same,ABUTH herbicidal rating,ABUTH (Velvetleaf) [1]; rate 0.0625 kg/ha,9.0
same,ABUTH herbicidal rating,ABUTH (Velvetleaf) [1]; rate 0.1250 kg/ha,9.0
same,IPOHE herbicidal rating,[2]; rate 0.0158 kg/ha,9.0
same,IPOHE herbicidal rating,[2]; rate 0.0313 kg/ha,9.0
same,IPOHE herbicidal rating,[2]; rate 0.0625 kg/ha,9.0
same,IPOHE herbicidal rating,[2]; rate 0.1250 kg/ha,9.0
same,SETVI herbicidal rating,"SETVI (Foxtail, Green); rate 0.0158 kg/ha",7.0
same,SETVI herbicidal rating,"SETVI (Foxtail, Green); rate 0.0313 kg/ha",9.0
same,SETVI herbicidal rating,"SETVI (Foxtail, Green); rate 0.0625 kg/ha",9.0
same,SETVI herbicidal rating,"SETVI (Foxtail, Green); rate 0.1250 kg/ha",9.0
same,GLXMAW herbicidal rating,[3]; rate 0.0158 kg/ha,7.5
same,GLXMAW herbicidal rating,[3]; rate 0.0313 kg/ha,9.0
same,GLXMAW herbicidal rating,[3]; rate 0.0625 kg/ha,9.0
same,GLXMAW herbicidal rating,[3]; rate 0.1250 kg/ha,9.0
same,ZEAMX herbicidal rating,"ZEAMX (Corn, Field); rate 0.0158 kg/ha",7.5
same,ZEAMX herbicidal rating,"ZEAMX (Corn, Field); rate 0.0313 kg/ha",7.5
same,ZEAMX herbicidal rating,"ZEAMX (Corn, Field); rate 0.0625 kg/ha",8.5
same,ZEAMX herbicidal rating,"ZEAMX (Corn, Field); rate 0.1250 kg/ha",9.0
same,ABUTH rating,ABUTH (Velvetleaf) [4]; 0.0156 kg/ha,1.5
same,ABUTH rating,ABUTH (Velvetleaf) [4]; 0.0313 kg/ha,6.5
same,ABUTH rating,ABUTH (Velvetleaf) [4]; 0.0625 kg/ha,9.0
same,ABUTH rating,ABUTH (Velvetleaf) [4]; 0.1250 kg/ha,9.0
same,ABUTH rating,ABUTH (Velvetleaf) [4]; 0.2500 kg/ha,9.0
same,ABUTH rating,ABUTH (Velvetleaf) [4]; 0.5000 kg/ha,9.0
same,AMBEL rating,"AMBEL (Ragweed, Common); 0.0156 kg/ha",0.0
same,AMBEL rating,"AMBEL (Ragweed, Common); 0.0313 kg/ha",0.5
same,AMBEL rating,"AMBEL (Ragweed, Common); 0.0625 kg/ha",2.0
same,AMBEL rating,"AMBEL (Ragweed, Common); 0.1250 kg/ha",6.5
same,AMBEL rating,"AMBEL (Ragweed, Common); 0.2500 kg/ha",6.5
same,AMBEL rating,"AMBEL (Ragweed, Common); 0.5000 kg/ha",9.0
same,CASOB rating,CASOB (Sicklepod); 0.0156 kg/ha,0.0
same,CASOB rating,CASOB (Sicklepod); 0.0313 kg/ha,0.0
same,CASOB rating,CASOB (Sicklepod); 0.0625 kg/ha,0.0
same,CASOB rating,CASOB (Sicklepod); 0.1250 kg/ha,3.0
same,CASOB rating,CASOB (Sicklepod); 0.2500 kg/ha,6.0
same,CASOB rating,CASOB (Sicklepod); 0.5000 kg/ha,9.0
same,IPOHE rating,[5]; 0.0156 kg/ha,0.0
same,IPOHE rating,[5]; 0.0313 kg/ha,0.0
same,IPOHE rating,[5]; 0.0625 kg/ha,0.5
same,IPOHE rating,[5]; 0.1250 kg/ha,1.5
same,IPOHE rating,[5]; 0.2500 kg/ha,9.0
same,IPOHE rating,[5]; 0.5000 kg/ha,9.0
same,ECHCG rating,ECHCG (Barnyardgrass); 0.0156 kg/ha,0.0
same,ECHCG rating,ECHCG (Barnyardgrass); 0.0313 kg/ha,0.0
same,ECHCG rating,ECHCG (Barnyardgrass); 0.0625 kg/ha,0.0
same,ECHCG rating,ECHCG (Barnyardgrass); 0.1250 kg/ha,2.0
same,ECHCG rating,ECHCG (Barnyardgrass); 0.2500 kg/ha,5.5
same,ECHCG rating,ECHCG (Barnyardgrass); 0.5000 kg/ha,9.0
same,ECHORC herbicidal effect rating,[6]; 0.0313 kg/ha,3.0
same,ECHORC herbicidal effect rating,[6]; 0.0625 kg/ha,4.0
same,ECHORC herbicidal effect rating,[6]; 0.1250 kg/ha,5.0
same,ECHORC herbicidal effect rating,[6]; 0.2500 kg/ha,6.0
same,CYPSE herbicidal effect rating,CYPSE (Flatsedge); 0.0313 kg/ha,0.0
same,CYPSE herbicidal effect rating,CYPSE (Flatsedge); 0.0625 kg/ha,0.0
same,CYPSE herbicidal effect rating,CYPSE (Flatsedge); 0.1250 kg/ha,4.0
same,CYPSE herbicidal effect rating,CYPSE (Flatsedge); 0.2500 kg/ha,6.0
same,Herbicidal rating ECHORC,[7]; Rate 0.0313 kg/ha,3.0
same,Herbicidal rating ECHORC,[7]; Rate 0.0625 kg/ha,4.0
same,Herbicidal rating ECHORC,[7]; Rate 0.1250 kg/ha,5.0
same,Herbicidal rating ECHORC,[7]; Rate 0.2500 kg/ha,6.0
same,Herbicidal rating CYPIR,CYPIR (Rice Flatsedge); Rate 0.0313 kg/ha,0.0
same,Herbicidal rating CYPIR,CYPIR (Rice Flatsedge); Rate 0.0625 kg/ha,0.0
same,Herbicidal rating CYPIR,CYPIR (Rice Flatsedge); Rate 0.1250 kg/ha,2.0
same,Herbicidal rating CYPIR,CYPIR (Rice Flatsedge); Rate 0.2500 kg/ha,4.0
"C#CCOC(=O)CC1SC(=Nc2cc(-n3c(=O)cc(C(F)(F)F)n(C)c3=O)c(F)cc2Cl)N(C)C1=O (stereo not drawn) [Compound 90, 2-Propynyl 2-{{2-chloro-5-[3,6-dihydro-3-methyl-2,6-dioxo-4-(trifluoromethyl)-1(2H)-pyrimidinyl]-4-fluorophenyl}imino}-3-methyl-4-oxo-5-thiazolidineacetate]",ABUTH herbicidal rating,ABUTH (Velvetleaf) [1]; rate 0.0158 kg/ha,9.0
same,ABUTH herbicidal rating,ABUTH (Velvetleaf) [1]; rate 0.0315 kg/ha,9.0
same,ABUTH herbicidal rating,ABUTH (Velvetleaf) [1]; rate 0.0630 kg/ha,9.0
same,IPOHE herbicidal rating,[2]; rate 0.0158 kg/ha,9.0
same,IPOHE herbicidal rating,[2]; rate 0.0315 kg/ha,9.0
same,IPOHE herbicidal rating,[2]; rate 0.0630 kg/ha,9.0
same,SETVI herbicidal rating,"SETVI (Foxtail, Green); rate 0.0158 kg/ha",9.0
same,SETVI herbicidal rating,"SETVI (Foxtail, Green); rate 0.0315 kg/ha",9.0
same,SETVI herbicidal rating,"SETVI (Foxtail, Green); rate 0.0630 kg/ha",9.0
same,GLXMAW herbicidal rating,[3]; rate 0.0158 kg/ha,9.0
same,GLXMAW herbicidal rating,[3]; rate 0.0315 kg/ha,9.0
same,GLXMAW herbicidal rating,[3]; rate 0.0630 kg/ha,9.0
same,ZEAMX herbicidal rating,"ZEAMX (Corn, Field); rate 0.0158 kg/ha",8.0
same,ZEAMX herbicidal rating,"ZEAMX (Corn, Field); rate 0.0315 kg/ha",8.5
same,ZEAMX herbicidal rating,"ZEAMX (Corn, Field); rate 0.0630 kg/ha",9.0
same,ABUTH rating,ABUTH (Velvetleaf) [4]; 0.0313 kg/ha,9.0
same,ABUTH rating,ABUTH (Velvetleaf) [4]; 0.0625 kg/ha,9.0
same,ABUTH rating,ABUTH (Velvetleaf) [4]; 0.1250 kg/ha,9.0
same,ABUTH rating,ABUTH (Velvetleaf) [4]; 0.2500 kg/ha,9.0
same,AMBEL rating,"AMBEL (Ragweed, Common); 0.0313 kg/ha",0.0
same,AMBEL rating,"AMBEL (Ragweed, Common); 0.0625 kg/ha",3.0
same,AMBEL rating,"AMBEL (Ragweed, Common); 0.1250 kg/ha",9.0
same,AMBEL rating,"AMBEL (Ragweed, Common); 0.2500 kg/ha",9.0
same,CASOB rating,CASOB (Sicklepod); 0.0313 kg/ha,3.0
same,CASOB rating,CASOB (Sicklepod); 0.0625 kg/ha,9.0
same,CASOB rating,CASOB (Sicklepod); 0.1250 kg/ha,9.0
same,CASOB rating,CASOB (Sicklepod); 0.2500 kg/ha,9.0
same,IPOHE rating,[5]; 0.0313 kg/ha,1.0
same,IPOHE rating,[5]; 0.0625 kg/ha,4.0
same,IPOHE rating,[5]; 0.1250 kg/ha,9.0
same,IPOHE rating,[5]; 0.2500 kg/ha,9.0
same,ECHCG rating,ECHCG (Barnyardgrass); 0.0313 kg/ha,0.0
same,ECHCG rating,ECHCG (Barnyardgrass); 0.0625 kg/ha,0.0
same,ECHCG rating,ECHCG (Barnyardgrass); 0.1250 kg/ha,0.0
same,ECHCG rating,ECHCG (Barnyardgrass); 0.2500 kg/ha,3.0
same,ECHORC herbicidal effect rating,[6]; 0.0313 kg/ha,0.0
same,ECHORC herbicidal effect rating,[6]; 0.0625 kg/ha,0.0
same,ECHORC herbicidal effect rating,[6]; 0.1250 kg/ha,0.0
same,ECHORC herbicidal effect rating,[6]; 0.2500 kg/ha,3.0
same,CYPSE herbicidal effect rating,CYPSE (Flatsedge); 0.0313 kg/ha,0.0
same,CYPSE herbicidal effect rating,CYPSE (Flatsedge); 0.0625 kg/ha,0.0
same,CYPSE herbicidal effect rating,CYPSE (Flatsedge); 0.1250 kg/ha,0.0
same,CYPSE herbicidal effect rating,CYPSE (Flatsedge); 0.2500 kg/ha,3.0
same,Herbicidal rating ECHORC,[7]; Rate 0.0313 kg/ha,0.0
same,Herbicidal rating ECHORC,[7]; Rate 0.0625 kg/ha,0.0
same,Herbicidal rating ECHORC,[7]; Rate 0.1250 kg/ha,0.0
same,Herbicidal rating ECHORC,[7]; Rate 0.2500 kg/ha,3.0
same,Herbicidal rating CYPIR,CYPIR (Rice Flatsedge); Rate 0.0313 kg/ha,0.0
same,Herbicidal rating CYPIR,CYPIR (Rice Flatsedge); Rate 0.0625 kg/ha,0.0
same,Herbicidal rating CYPIR,CYPIR (Rice Flatsedge); Rate 0.1250 kg/ha,1.0
same,Herbicidal rating CYPIR,CYPIR (Rice Flatsedge); Rate 0.2500 kg/ha,3.0
